Test results as given in the supplement of paper PMC6045584.
± gives the standard deviation of the averaged measurements.

Compound: CCN(CC)CCCCNc1ncc2cc(-c3cc(OC)cc(OC)c3)c(NC(=O)NC(C)(C)C)nc2n1
Experiment: surviving fraction relative to DMSO-only wells; higher = less growth inhibition
Conditions: 0.5 nM; exposure time: 5 days
Method in brief: (§1)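 Log-phase tumour cells were seeded at 250–500 per well in 384-well plates and, from 24 hours after seeding, exposed continuously for five days to inhibitors at 0.5, 1, 5, 10, 50, 100, 500 and 1000 nM. Surviving fraction is CellTiter-Glo luminescence normalised to the median of DMSO-only wells. Luminescence was measured after 10 minutes at room temperature, and only lines screened three times with replicate Pearson r >0.7 and median Z' >0.3 were kept.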

Test System	surviving fraction
HMLE3 BREAST	0.929 ± 0.061
HS578T BREAST	0.97 ± 0.1
HMT3552 BREAST	1.15
HCC38 BREAST	1.15 ± 0.23
HS57T BREAST	0.932 ± 0.022
G292 BONE	0.836 ± 0.27
HCC70 BREAST	0.977 ± 0.084

Same assay, conditions: 1 nM; exposure time: 5 days

Test System	surviving fraction
HMLE3 BREAST	0.934 ± 0.049
HS578T BREAST	1.03 ± 0.19
HMT3552 BREAST	0.971
HCC38 BREAST	0.97 ± 0.19
HS57T BREAST	0.899 ± 0.03
G292 BONE	0.97 ± 0.048
HCC70 BREAST	1 ± 0.017

Same assay, conditions: 5 nM; exposure time: 5 days

Test System	surviving fraction
HMLE3 BREAST	0.895 ± 0.05
HS578T BREAST	0.973 ± 0.098
HMT3552 BREAST	0.993
HCC38 BREAST	1.15 ± 0.17
HS57T BREAST	0.977 ± 0.067
G292 BONE	0.958 ± 0.027
HCC70 BREAST	0.957 ± 0.12

Same assay, conditions: 10 nM; exposure time: 5 days

Test System	surviving fraction
HMLE3 BREAST	0.995 ± 0.056
HS578T BREAST	1.02 ± 0.02
HMT3552 BREAST	1.05
HCC38 BREAST	1.12 ± 0.19
HS57T BREAST	0.952 ± 0.015
G292 BONE	0.918 ± 0.042
HCC70 BREAST	1.07 ± 0.041

Same assay, conditions: 50 nM; exposure time: 5 days

Test System	surviving fraction
HMLE3 BREAST	0.764 ± 0.049
HS578T BREAST	0.836 ± 0.021
HMT3552 BREAST	0.89
HCC38 BREAST	0.979 ± 0.37
HS57T BREAST	0.67 ± 0.03
G292 BONE	0.495 ± 0.17
HCC70 BREAST	1.05 ± 0.06

Same assay, conditions: 100 nM; exposure time: 5 days

Test System	surviving fraction
HMLE3 BREAST	0.683 ± 0.052
HS578T BREAST	0.801 ± 0.056
HMT3552 BREAST	0.98
HCC38 BREAST	1.04 ± 0.18
HS57T BREAST	0.693 ± 0.078
G292 BONE	0.387 ± 0.008
HCC70 BREAST	1.08 ± 0.037

Same assay, conditions: 500 nM; exposure time: 5 days

Test System	surviving fraction
HMLE3 BREAST	0.428 ± 0.0075
HS578T BREAST	0.886 ± 0.096
HMT3552 BREAST	0.827
HCC38 BREAST	0.824 ± 0.17
HS57T BREAST	0.577 ± 0.021
G292 BONE	0.181 ± 0.012
HCC70 BREAST	0.962 ± 0.055

Same assay, conditions: 1000 nM; exposure time: 5 days

Test System	surviving fraction
HMLE3 BREAST	0.41 ± 0.023
HS578T BREAST	0.738 ± 0.095
HMT3552 BREAST	0.803
HCC38 BREAST	0.846 ± 0.2
HS57T BREAST	0.579 ± 0.089
G292 BONE	0.18 ± 0.0066
HCC70 BREAST	1 ± 0.09

Compound: COc1cccc2c1C(=O)c1c(O)c3c(c(O)c1C2=O)C[C@@](O)(C(=O)CO)C[C@@H]3O[C@H]1C[C@H](N)[C@H](O)[C@H](C)O1 [DOXORUBICIN]
Experiment: as above
Conditions: 0.5 nM; exposure time: 5 days
Method in brief: as §1

Test System	surviving fraction
HMLE3 BREAST	0.941 ± 0.088
HS578T BREAST	0.922 ± 0.097
HMT3552 BREAST	1.09
HCC38 BREAST	1.23 ± 0.28
HS57T BREAST	0.98 ± 0.066
G292 BONE	1.03 ± 0.065
HCC70 BREAST	0.966 ± 0.06

Same assay, conditions: 1 nM; exposure time: 5 days

Test System	surviving fraction
HMLE3 BREAST	1.04 ± 0.046
HS578T BREAST	0.958 ± 0.092
HMT3552 BREAST	0.911
HCC38 BREAST	1.19 ± 0.18
HS57T BREAST	0.906 ± 0.1
G292 BONE	1 ± 0.037
HCC70 BREAST	0.939 ± 0.021

Same assay, conditions: 5 nM; exposure time: 5 days

Test System	surviving fraction
HMLE3 BREAST	0.744 ± 0.081
HS578T BREAST	0.838 ± 0.1
HMT3552 BREAST	0.949
HCC38 BREAST	1.1 ± 0.23
HS57T BREAST	0.478 ± 0.09
G292 BONE	0.816 ± 0.052
HCC70 BREAST	0.986 ± 0.15

Same assay, conditions: 10 nM; exposure time: 5 days

Test System	surviving fraction
HMLE3 BREAST	0.405 ± 0.0065
HS578T BREAST	0.693 ± 0.013
HMT3552 BREAST	0.817
HCC38 BREAST	0.759 ± 0.14
HS57T BREAST	0.318 ± 0.015
G292 BONE	0.601 ± 0.059
HCC70 BREAST	0.9 ± 0.13

Same assay, conditions: 50 nM; exposure time: 5 days

Test System	surviving fraction
HMLE3 BREAST	0.231 ± 0.022
HS578T BREAST	0.483 ± 0.046
HMT3552 BREAST	0.154
HCC38 BREAST	0.301 ± 0.034
HS57T BREAST	0.353 ± 0.045
G292 BONE	0.388 ± 0.031
HCC70 BREAST	0.33 ± 0.013

Same assay, conditions: 100 nM; exposure time: 5 days

Test System	surviving fraction
HMLE3 BREAST	0.069 ± 0.018
HS578T BREAST	0.489 ± 0.066
HMT3552 BREAST	0.167
HCC38 BREAST	0.0897 ± 0.0085
HS57T BREAST	0.124 ± 0.015
G292 BONE	0.338 ± 0.0043
HCC70 BREAST	0.489 ± 0.045

Same assay, conditions: 500 nM; exposure time: 5 days

Test System	surviving fraction
HMLE3 BREAST	0.02 ± 0.001
HS578T BREAST	0.094 ± 0.02
HMT3552 BREAST	0.099
HCC38 BREAST	0.0433 ± 0.0025
HS57T BREAST	0.0277 ± 0.0011
G292 BONE	0.108 ± 0.006
HCC70 BREAST	0.15 ± 0.022

Same assay, conditions: 1000 nM; exposure time: 5 days

Test System	surviving fraction
HMLE3 BREAST	0.0223 ± 0.00058
HS578T BREAST	0.037 ± 0.0079
HMT3552 BREAST	0.027
HCC38 BREAST	0.044 ± 0.0079
HS57T BREAST	0.0273 ± 0.0011
G292 BONE	0.0887 ± 0.0033
HCC70 BREAST	0.0553 ± 0.017
